Test results reported in ChEMBL document CHEMBL1201862, “PubChem BioAssay data set” (2004).
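All cell lines were grown in 96-well plates and treated with compound for 48 hours. GI50 is the concentration that inhibits growth by half.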 Active and inactive are the calls of the source. Rule as the data show it: active = GI50 up to about 1.1 µM and inactive = higher.

Key:
Experiment in all cases: growth of human tumour cells (NCI), 48 h
HT-29 = system: HT-29
HCT-15 = system: HCT-15
MDA-MB-435 = system: MDA-MB-435
IGROV-1 = system: IGROV-1
EKVX = system: EKVX
SK-MEL-28 = system: SK-MEL-28
CAKI-1 = system: CAKI-1
SF-295 = system: SF-295
MDA-MB-231 = system: MDA-MB-231
COLO 205 = system: COLO 205
HCT-116 = system: HCT-116
OVCAR-4 = system: OVCAR-4
SK-MEL-5 = system: SK-MEL-5
SW-620 = system: SW-620
NCI-H522 = system: NCI-H522
NCI/ADR-RES = system: NCI/ADR-RES
PC-3 = system: PC-3
UACC-257 = system: UACC-257
Malme-3M = system: Malme-3M
A498 = system: A498

Measured: GI50

CC(=O)OC[C@@]1(C)[C@@H]2[C@@H]3[C@@]4(CO[C@]3(C)C(=O)[C@@]3(O)C[C@H](C)[C@H](OC(C)=O)[C@@H]3[C@H]4OC(C)=O)[C@H](OC(=O)c3ccccc3)C[C@@H]21
inactive: HT-29 > 100 µM | MDA-MB-435 > 100 µM | IGROV-1 > 100 µM | EKVX > 100 µM | SK-MEL-28 > 100 µM | CAKI-1 > 100 µM | SF-295 > 100 µM | MDA-MB-231 > 100 µM | COLO 205 > 100 µM | HCT-116 > 100 µM | OVCAR-4 > 100 µM | SK-MEL-5 > 100 µM | SW-620 > 100 µM | NCI-H522 > 100 µM | NCI/ADR-RES > 100 µM | PC-3 > 100 µM | UACC-257 > 100 µM | Malme-3M > 100 µM | A498 > 100 µM
> 100 µM: HCT-15

Clc1ccc(C(OCn2ccnc2)c2nc3ccccc3[nH]2)c(Cl)c1 (stereo unspecified)
inactive: HT-29 53.3 µM | MDA-MB-435 25.2 µM | IGROV-1 43.3 µM | EKVX 66.2 µM | SK-MEL-28 48.3 µM | CAKI-1 87.3 µM | SF-295 29.6 µM | MDA-MB-231 84.5 µM | COLO 205 34 µM | HCT-116 33.8 µM | OVCAR-4 16.6 µM | SK-MEL-5 16.2 µM | SW-620 26.9 µM | NCI-H522 43.1 µM | NCI/ADR-RES 56.2 µM | PC-3 35.2 µM | UACC-257 35.5 µM | Malme-3M 88.9 µM | A498 38.2 µM
27.7 µM: HCT-15

COC(=O)CC1C(COC(C)=O)OC(n2cc(C)c(=O)[nH]c2=O)C1OC(C)=O (stereo unspecified)
> 100 µM: HCT-15
inactive: HT-29 > 100 µM | MDA-MB-435 > 100 µM | IGROV-1 > 100 µM | EKVX > 100 µM | SK-MEL-28 > 100 µM | CAKI-1 > 100 µM | SF-295 > 100 µM | MDA-MB-231 > 100 µM | COLO 205 > 100 µM | HCT-116 > 100 µM | OVCAR-4 > 100 µM | SK-MEL-5 > 100 µM | SW-620 > 100 µM | NCI-H522 > 100 µM | NCI/ADR-RES > 100 µM | PC-3 > 100 µM | UACC-257 > 100 µM | Malme-3M > 100 µM | A498 > 100 µM

Cc1n[nH]c(=O)n1/N=C/c1ccc([N+](=O)[O-])cc1
> 100 µM: HCT-15
inactive: HT-29 > 100 µM | MDA-MB-435 > 100 µM | EKVX 60.7 µM | SK-MEL-28 > 100 µM | CAKI-1 30.1 µM | SF-295 > 100 µM | MDA-MB-231 > 100 µM | COLO 205 > 100 µM | HCT-116 > 100 µM | OVCAR-4 > 100 µM | SK-MEL-5 > 100 µM | SW-620 > 100 µM | NCI-H522 > 100 µM | NCI/ADR-RES > 100 µM | PC-3 > 100 µM | UACC-257 > 100 µM | Malme-3M > 100 µM | A498 > 100 µM

O=c1[nH]cc(F)c(=O)[nH]1 [FLUOROURACIL]
inactive: MDA-MB-435 10.6 µM | IGROV-1 14.3 µM | EKVX 299 µM | SK-MEL-28 50.2 µM | CAKI-1 4.45 µM | SF-295 51.9 µM | MDA-MB-231 489 µM | OVCAR-4 69.7 µM | SK-MEL-5 11.6 µM | SW-620 27.7 µM | NCI-H522 37 µM | NCI/ADR-RES 41.3 µM | PC-3 50.6 µM | UACC-257 95.7 µM | Malme-3M 22.5 µM | A498 10.2 µM

Cn1c(=O)c2ccccc2c2ccccc21
inactive: HT-29 40.2 µM | MDA-MB-435 56.8 µM | EKVX 18.8 µM | SK-MEL-28 85.5 µM | CAKI-1 24.7 µM | SF-295 48.4 µM | MDA-MB-231 56.6 µM | COLO 205 34.3 µM | HCT-116 45 µM | OVCAR-4 66.7 µM | SK-MEL-5 30.3 µM | SW-620 45.2 µM | NCI-H522 36.6 µM | NCI/ADR-RES 37 µM | PC-3 71.6 µM | UACC-257 81.1 µM | Malme-3M 46 µM | A498 30.8 µM
40 µM: HCT-15

CC(=O)OCC1OC(OCC2OC(N3C(=S)N[C@H]([C@@H](O)[C@H](O)[C@H](O)CO)[C@H]3O)C(OC(C)=O)C(OC(C)=O)C2OC(C)=O)C(OC(C)=O)C(OC(C)=O)C1OC(C)=O (stereo partly specified)
inactive: HT-29 65.6 µM | MDA-MB-435 > 100 µM | SK-MEL-28 > 100 µM | CAKI-1 > 100 µM | SF-295 > 100 µM | MDA-MB-231 > 100 µM | COLO 205 > 100 µM | HCT-116 > 100 µM | OVCAR-4 > 100 µM | SK-MEL-5 > 100 µM | SW-620 > 100 µM | NCI-H522 83.8 µM | NCI/ADR-RES > 100 µM | PC-3 > 100 µM | Malme-3M > 100 µM | A498 > 100 µM
> 100 µM: HCT-15
